Assay results published in patent US8685974B2 (Bayer CropScience AG, priority 2009, dated 2014).
Like-named read-outs stand apart in the source and are kept apart here. Marks after values point to notes of the source that are not given here.

CCC(C)n1cc(-c2ccnc(NC(C)C)n2)c(-c2ccc(Cl)s2)n1 (stereo not drawn) [Example 189]
log p (pH 2.3): 3.25^[a]

CCC(CC)n1cc(-c2ccnc(NC(C)C)n2)c(-c2ccc(Cl)s2)n1 [Example 116]
log p (pH 2.7): 3.57^[b] | logP value of the minor isomer (in parenthesis in column Isomer ratio [d]) (pH 2.7): (3.37)

CC(C)Nc1nccc(-c2cn(CC(F)F)nc2-c2ccc(Cl)s2)n1 [Example 162]
log p (pH 2.7): 2.66^[b]

CC(C)Nc1nccc(-c2cn(CCc3ccccc3)nc2-c2ccc(Cl)s2)n1 [Example 153]
log p (pH 2.7): 3.63^[b]

Cn1cc(-c2ccnc(NC(=O)C(C)(C)C)c2)c(-c2ccc(Cl)s2)n1 [Example 283]
log p (pH 2.7): 2.92^[b]

CC(C)(C)Cn1ncc(-c2ccncc2)c1-c1ccc(Cl)s1 [Example 25]
log p (pH 2.7): 2.17^[b]

FC(F)Cn1cc(-c2ccncc2)c(-c2cc(Cl)cs2)n1 [Example 157]
log p (pH 2.7): 1.42^[b]

CC1(Cn2cc(-c3ccncc3)c(-c3cc4ccsc4s3)n2)CC1(Cl)Cl (stereo not drawn) [Example 326]
log p (pH 2.7): 2.62^[b] | logP value of the minor isomer (between parenthesis, Isomer ratio column) (pH 2.7): (2.46)

CC(C)Cn1cc(-c2cc[n+]([O-])c(NCc3ccccc3)c2)c(-c2ccc(Cl)s2)n1 [Example 73]
log p (pH 2.3): 3.73^[a]

N#CCn1cc(-c2ccncc2)c(-c2cc3ccsc3s2)n1 [Example 336]
log p (pH 2.7): 1.48^[b]

FC(F)(F)c1ccc(-c2c(-c3ccncc3)cnn2C2CCCCO2)s1 (stereo not drawn) [4-[1-(2-tetrahydropyrannyl)-5-(5-trifluoromethyl-2-thienyl)-1H-pyrazol-4-yl]pyridine]
logP (pH2.7) (pH 2.7): 1.96

FC=Cn1cc(-c2ccnc(N=C(c3ccccc3)c3ccccc3)c2)c(-c2ccc(Cl)s2)n1 [Example 302]
log p (pH 2.7): 4.67^[b]

Clc1ccc(-c2c(-c3ccncc3)cnn2C2CCCCC2)s1 [Example 12]
log p (pH 2.7): 2.26^[b]

Clc1cc(-c2c[nH]nc2-c2ccc(Cl)s2)ccn1 [Example 40]
log p (pH 2.3): 2.75^[a]

CCOCCn1cc(-c2ccncc2)c(-c2sccc2Cl)n1 [Example 135]
log p (pH 2.7): 1.23^[b]

C#CCNc1cc(-c2cnn(CC(C)C)c2-c2ccc(Cl)s2)cc[n+]1[O-] [2-Propargylamino-4-[1-isobutyl-5-(5-chloro-2-thienyl)-1H-pyrazol-4-yl]pyridine-N-oxyde]
logP (pH2.7) (pH 2.7): 2.92

CCCNc1cc(-c2c[nH]nc2-c2ccc(Cl)s2)cc[n+]1[O-] [Example 71]
log p (pH 2.3): 1.9^[a]

C=CCn1cc(-c2ccncc2)c(-c2ccc(Cl)s2)n1 [Example 48]
log p (pH 2.7): 1.65^[b] | logP value of the minor isomer (in parenthesis in column Isomer ratio [d]) (pH 2.7): (1.50)

COc1ccc(Cn2nc(-c3ccc(Cl)s3)c(-c3ccncc3)c2SC)cc1 [Example 103]
log p (pH 2.7): 3.78^[b]

CC(C)Cn1cc(-c2ccnc(N(Cc3ccccc3)C(=O)C(C)C)n2)c(-c2ccc(Cl)s2)n1 [Example 94]
log p (pH 2.3): 5.88^[a]

Cc1[nH]nc(-c2ccc(Cl)s2)c1-c1ccncc1 [Example 68]
log p (pH 2.7): 1.07^[b]

CS(=O)(=O)n1cc(-c2ccncc2)c(-c2ccc(Cl)s2)n1 [Example 88]
log p (pH 2.7): 1.78^[b]

C=CC(C)n1cc(-c2ccnc(NC(C)C)n2)c(-c2ccc(Cl)s2)n1 (stereo not drawn) [Example 123]
log p (pH 2.7): 3.02^[b] | logP value of the minor isomer (in parenthesis in column Isomer ratio [d]) (pH 2.7): (2.73)

CC(C)=CCn1cc(-c2ccnc(NC(C)C)n2)c(-c2ccc(Cl)s2)n1 [Example 118]
log p (pH 2.7): 3.44^[b] | logP value of the minor isomer (in parenthesis in column Isomer ratio [d]) (pH 2.7): (3.00)

CC(C)Nc1nccc(-c2cn(CC(F)(F)F)nc2-c2ccc(Cl)s2)n1 [Example 124]
log p (pH 2.7): 3.11^[b]

COc1nccc(-c2c[nH]nc2-c2ccc(Cl)s2)n1 [Example 69]
log p (pH 2.3): 2.23^[a]

N#CCCn1cc(-c2ccncc2)c(-c2sccc2Cl)n1 [Example 143]
log p (pH 2.7): 0.86^[b]

C#CCn1cc(-c2ccncc2)c(-c2sccc2Cl)n1 [Example 131]
log p (pH 2.7): 1.11^[b] | logP value of the minor isomer (pH 2.7): (1.10)

C#CCNc1cc(-c2cn(CC(C)C)nc2-c2ccc(Cl)s2)cc[n+]1[O-] [2-Propargylamino-4-[1-isobutyl-3-(5-chloro-2-thienyl)-1H-pyrazol-4-yl]pyridine-N-oxyde]
logP (pH2.7) (pH 2.7): 2.70

CCC(CC)n1ncc(-c2ccncc2)c1-c1ccc(Cl)s1 [Example 41]
log p (pH 2.3): 2.08^[a]

C=CCn1cc(-c2ccnc(NC(C)C)n2)c(-c2ccc(Cl)s2)n1 [Example 155]
log p (pH 2.7): 2.68^[b]

COCn1cc(-c2ccncc2)c(-c2sccc2Cl)n1 [Example 129]
log p (pH 2.7): 0.95^[b]

CC(C)n1ncc(-c2ccncc2)c1-c1ccc(I)s1 [Example 215]
log p (pH 2.7): 1.78^[b]

CC(C)Cn1cc(-c2ccncc2)c(-c2cc3sccc3s2)n1 [4-[1-isobutyl-(3/5)-(3-thieno[3,2-b]thiophen-2-yl)-1H-pyrazol-4-yl]pyridine]
logP (pH2.7) (pH 2.7): 2.07 | logP (pH2.7), minor isomer (pH 2.7): 2.02

N#CCn1cc(-c2ccncc2)c(-c2ccc(Cl)s2)n1 [Example 53]
log p (pH 2.7): 1.4^[b] | logP value of the minor isomer (in parenthesis in column Isomer ratio [d]) (pH 2.7): (1.10)

Cn1cc(-c2ccncc2)c(-c2sccc2Cl)n1 [Example 142]
log p (pH 2.7): 0.78^[b] | logP value of the minor isomer (pH 2.7): (0.88)

CC(C)Cn1cc(-c2ccnc(NCc3ccccc3)n2)c(-c2ccc(Cl)s2)n1 [Example 93]
log p (pH 2.3): 4.31^[a]

C=CCn1cc(-c2ccncc2)c(-c2sccc2Cl)n1 [Example 136]
log p (pH 2.7): 1.22^[b] | logP value of the minor isomer (pH 2.7): (1.28)

CCC(C)n1cc(-c2ccnc(S(C)(=O)=O)n2)c(-c2ccc(Cl)s2)n1 (stereo not drawn) [Example 202]
log p (pH 2.3): 3.52^[a]

C=CCNc1nccc(-c2cn(C(C)C)nc2-c2ccc(Cl)s2)n1 [Example 184]
log p (pH 2.3): 3^[a]

CCC(C)n1ncc(-c2ccnc(SC)n2)c1-c1ccc(Cl)s1 (stereo not drawn) [Example 209]
log p (pH 2.3): 4.76^[a]

ClCCn1cc(-c2ccncc2)c(-c2sccc2Cl)n1 [Example 134]
log p (pH 2.7): 1.22^[b] | logP value of the minor isomer (pH 2.7): (1.29)

N#CCn1cc(-c2ccncc2)c(-c2sccc2Cl)n1 [Example 137]
log p (pH 2.7): 0.93^[b] | logP value of the minor isomer (pH 2.7): (0.78

CC(C)=CCn1ncc(-c2ccncn2)c1-c1ccc(Cl)s1 [Example 29]
log p (pH 2.7): 3.44^[b]

N-Butyl-5-[4-(pyridin-4-yl)-1H-pyrazol-3-yl]thiophene-2-carboxamide hydrochloride
logP (pH2.7) (pH 2.7): 1.47

FC(F)(F)Cn1cc(-c2ccncc2)c(-c2sccc2Cl)n1 [Example 138]
log p (pH 2.7): 1.39^[b]

CC(C)n1cc(-c2ccnc(NS(=O)(=O)N(C)C)c2)c(-c2ccc(Cl)s2)n1 [Example 218]
log p (pH 2.7): 3^[b]

Cc1c(-c2ccncc2)c(-c2ccc(Cl)s2)nn1C [Example 147]
log p (pH 2.7): 1.29^[b] | log p (pH 7.8): 2.62^[c];

CC(CN(C)C)Cn1cc(-c2ccnc(Cl)c2)c(-c2ccc(Cl)s2)n1 (stereo not drawn) [Example 91]
log p (pH 2.3): 1.84^[a] | logP value of the minor isomer (in parenthesis in column Isomer ratio [d]) (pH 2.3): (1.74)

C#CCn1cc(-c2ccnc(NC(C)C)n2)c(-c2ccc(Cl)s2)n1 [Example 117]
log p (pH 2.7): 2.52^[b] | logP value of the minor isomer (in parenthesis in column Isomer ratio [d]) (pH 2.7): (3.13)

CC(C)Cn1cc(-c2cc[n+]([O-])c(NCc3ccccc3)c2)c(-c2ccc(Cl)s2)n1 [2-Benzylamino-4-[1-isobutyl-3-(5-chloro-2-thienyl)-1H-pyrazol-4-yl]pyridine N oxide]
logP (pH2.7) (pH 2.7): 3.65

CC(=O)Nc1cc(-c2cn(C(C)C)nc2-c2ccc(Cl)s2)ccn1 [N-{4-[(3/5)-(5-Chloro-2-thienyl)-1-isopropyl-1H-pyrazol-4-yl]pyridin-2-yl}acetamide]
logP (pH2.7) (pH 2.7): 2.45 | logP (pH2.7), minor isomer (pH 2.7): 2.22

C#CCNc1cc(-c2cn(CC(C)C)nc2-c2ccc(Cl)s2)cc[n+]1[O-] [Example 84]
log p (pH 2.3): 2.92^[a]

Clc1ccc(-c2c(-c3ccncc3)cnn2C2CCCC2)s1 [Example 16]
log p (pH 2.7): 2.13^[b]

CC(C)Cn1ncc(-c2ccnc(NCc3ccccc3)n2)c1-c1ccc(Cl)s1 [Example 96]
log p (pH 2.3): 3.96^[a]

CC(C)n1cc(-c2ccnc(N)n2)c(-c2ccc(Cl)s2)n1 [Example 185]
log p (pH 2.3): 2.01^[a]

FC(F)Cn1cc(-c2ccncc2)c(-c2sccc2Cl)n1 [Example 127]
log p (pH 2.7): 1.14^[b] | logP value of the minor isomer (pH 2.7): (1.17)

CN(C)S(=O)(=O)Nc1cc(-c2cn(C)nc2-c2ccc(Cl)s2)ccn1 [Example 220]
log p (pH 2.7): 2.23^[b]

CSc1nccc(-c2cn(C(C)C)nc2-c2ccc(Cl)s2)n1 [Example 222]
log p (pH 2.3): 4.44^[a]

CC(C)Cn1cc(-c2ccnc(N)c2)c(-c2ccc(Cl)s2)n1 [2-Amino-4-[1-isobutyl-(3/5)-(5-chloro-2-thienyl)-1H-pyrazol-4-yl]pyridine]
logP (pH2.7) (pH 2.7): 2.04 | logP (pH2.7), minor isomer (pH 2.7): 1.93

CC(C)=CCn1cc(-c2ccncc2)c(-c2ccc(F)s2)n1 [Example 343]
log p (pH 2.7): 1.45^[b]

Clc1sc(-c2n[nH]cc2-c2ccncc2)c(Cl)c1Cl [Example 2]
log p (pH 2.7): 1.52^[b]

CCC(C)n1cc(-c2cc[n+]([O-])cc2)c(-c2ccc(Cl)s2)n1 (stereo not drawn) [4-[1-sec-butyl-3-(5-chloro-2-thienyl)-1H-pyrazol-4-yl]pyridine N oxide]
logP (pH2.7) (pH 2.7): 2.5

CCOCCn1cc(-c2ccnc(NC(C)C)n2)c(-c2ccc(Cl)s2)n1 [Example 120]
log p (pH 2.7): 2.56^[b] | logP value of the minor isomer (in parenthesis in column Isomer ratio [d]) (pH 2.7): (2.33)

CC(C)Cn1cc(-c2cc[n+]([O-])c(Cl)c2)c(-c2ccc(Cl)s2)n1 [Example 74]
log p (pH 2.3): 3.04^[a] | logP value of the minor isomer (in parenthesis in column Isomer ratio [d]) (pH 2.3): (2.82)

CCC(C)n1ncc(-c2ccncc2)c1-c1ccc(Cl)s1 (stereo not drawn) [Example 9]
log p (pH 2.7): 1.91^[b]

CCC(C)n1nc(-c2ccc(Cl)s2)c(-c2ccncc2)c1Br (stereo not drawn) [4-[5-Bromo-1-secbutyl-(3/5)-(5-chloro-2-thienyl)-1H-pyrazol-4-yl]pyridine]
logP (pH2.7) (pH 2.7): 3.69

CCOC(=O)n1cc(-c2ccncc2)c(-c2ccc(Cl)s2)n1 [Example 87]
log p (pH 2.7): 1.97^[b]

CC(C)n1cc(-c2ccnc(NC=O)n2)c(-c2ccc(Cl)s2)n1 [Example 144]
log p (pH 2.3): 3.81^[a]

CC(C)Cn1cc(-c2ccncc2)c(-c2sccc2Cl)n1 [Example 159]
log p (pH 2.7): 1.62^[b]
